Results reported in patent publication US20120196858A1, “METHOD OF PROMOTING APOPTOSIS AND INHIBITING METASTASIS” (Poniard Pharmaceuticals ,Inc., priority 2009, published 2012).

Experiments:
[1] = tested on: 4T1 cells; experiment: Annexin V binding by flow cytometry; type: cell-based, murine; conditions: 24 h
Protocol: Cell pellets were resuspended in 300 p. 1 of PBS containing propidium iodide (PI) (10 μg/ml), DNAse-free RNAse (100 μg/ml, Qiagen), and then incubated at 37° C. with agitation for 1 h. Samples were analyzed by flow cytometry (FACSCalibur, Becton-Dickinson) and cell cycle analyses were performed by ModFit LT3.2 software (Verity software house). Hypodiploid DNA content as a measure of cell apoptosis was detected by PI staining as described ^29. […] Quadrant gates were positioned based on cell autofluorescence (negative) staurosporine-treated (positive) controls. Apoptosis was calculated to be the percent of annexin V-positive cells. In the soft agar assays, apoptosis was quantified by visual inspection of at least 200 cells and was defined as the appearance of membrane blebbing or cell shrinkage. Apoptosis was also detected by appearance of cleaved caspase-3 antibody reactivity in protein lysates by immunoblotting.

[2] = tested on: MDA-MB-231 cells; experiment: Apoptosis assay of suspended cells (annexin V, flow cytometry); type: cell-based, human; conditions: up to 10 μM, within 6 h
Protocol: Quadrant gates were positioned based on cell autofluorescence (negative) staurosporine-treated (positive) controls. Apoptosis was calculated to be the percent of annexin V-positive cells.

[3] = tested on: ID8 ovarian carcinoma cells; experiment: ID8 suspended spheroid cell growth; type: cell-based, murine
Protocol: Anchorage-dependent, spheroid, and soft agar cell growth assays: Cells (2×10^5) were plated per 35 mm well under adherent (tissue culture-treated) and non-adherent conditions (poly-HEMA-coated) in 6-well plates (Costar) in growth media. […] For spheroid area determination, cells were imaged after 72 h in phase contrast using an Olympus IX51 microscope. Area was calculated using Image J software (version 1.43). For soft agar assays, 48-well plates were coated with a 1:4 mix of 2% agar (EM Science) in 0.2 ml growth media (bottom layer). 5×10^4 cells were plated per well (in triplicate) in a mixture of 0.3% agar in 0.2 ml growth media (top layer). […] After 10 days, colonies were imaged in phase contrast, enumerated by counting 9 fields (3 fields per well), and total area determined using Image J. For all analyses, experimental points were performed in triplicate and were experiments were repeated at least two times.

[4] = tested on: ID8 ovarian carcinoma cells; experiment: Intraperitoneal ID8 ovarian carcinoma tumor growth in C57Bl6 mice; type: in vivo, C57B16 mice
Protocol: Mouse tumor studies: Six to eight week old female C57B16 and BALB/c mice were obtained from Harlan Laboratories (Indianapolis, Ind.) and housed in pathogen-free conditions, according to the guidelines of the Association for the Assessment and Accreditation for Laboratory Animal Care, International. All in vivo studies were carried out under an approved institutional experimental animal care and use protocol. Growing tumor cells were harvested by limited trypsinization, washed in PBS, and counted using a ViCell XR (Beckman) prior to injection. Cell viability as measured by trypan blue exclusion was >95%. For subcutaneous tumor growth, 1×10^6 mCherry-labeled 4T1 cells in 100 μl PBS were injected into the hindflank of Balb/C mice. […] Control animals received PEG400:PBS injections and at 13 days, tumors were imaged in situ using an Olympus OV100 Intravital Fluorescence Molecular Imaging System, tumors were excised and weighed, half was frozen in OCT, and half was solubilized in protein lysis buffer for FAK phosphorylation analyses. For ID8 ovarian carcinoma tumor growth, 0.8 mL of 1×10^7 ID8 cells in PBS was intraperitoneal injected into C57B16 mice. […] Administration continued ad libitum for 30 days after which mice were euthanized, ascites fluid collected, cells obtained by centrifugation (2000 rpm for 5 min), cell volume measured by pipet, and then solubilized in protein lysis buffer for immunoblotting analyses.

[5] = target: T1, insulin receptor (IR) (Homo sapiens, UniProt P06213); experiment: Millipore KinaseProfiler selectivity screen; type: biochemical; conditions: read-out: kinase inhibition
T1 construct: purchased Millipore (KinaseProfiler service)
T1 sequence (P06213 28-1382): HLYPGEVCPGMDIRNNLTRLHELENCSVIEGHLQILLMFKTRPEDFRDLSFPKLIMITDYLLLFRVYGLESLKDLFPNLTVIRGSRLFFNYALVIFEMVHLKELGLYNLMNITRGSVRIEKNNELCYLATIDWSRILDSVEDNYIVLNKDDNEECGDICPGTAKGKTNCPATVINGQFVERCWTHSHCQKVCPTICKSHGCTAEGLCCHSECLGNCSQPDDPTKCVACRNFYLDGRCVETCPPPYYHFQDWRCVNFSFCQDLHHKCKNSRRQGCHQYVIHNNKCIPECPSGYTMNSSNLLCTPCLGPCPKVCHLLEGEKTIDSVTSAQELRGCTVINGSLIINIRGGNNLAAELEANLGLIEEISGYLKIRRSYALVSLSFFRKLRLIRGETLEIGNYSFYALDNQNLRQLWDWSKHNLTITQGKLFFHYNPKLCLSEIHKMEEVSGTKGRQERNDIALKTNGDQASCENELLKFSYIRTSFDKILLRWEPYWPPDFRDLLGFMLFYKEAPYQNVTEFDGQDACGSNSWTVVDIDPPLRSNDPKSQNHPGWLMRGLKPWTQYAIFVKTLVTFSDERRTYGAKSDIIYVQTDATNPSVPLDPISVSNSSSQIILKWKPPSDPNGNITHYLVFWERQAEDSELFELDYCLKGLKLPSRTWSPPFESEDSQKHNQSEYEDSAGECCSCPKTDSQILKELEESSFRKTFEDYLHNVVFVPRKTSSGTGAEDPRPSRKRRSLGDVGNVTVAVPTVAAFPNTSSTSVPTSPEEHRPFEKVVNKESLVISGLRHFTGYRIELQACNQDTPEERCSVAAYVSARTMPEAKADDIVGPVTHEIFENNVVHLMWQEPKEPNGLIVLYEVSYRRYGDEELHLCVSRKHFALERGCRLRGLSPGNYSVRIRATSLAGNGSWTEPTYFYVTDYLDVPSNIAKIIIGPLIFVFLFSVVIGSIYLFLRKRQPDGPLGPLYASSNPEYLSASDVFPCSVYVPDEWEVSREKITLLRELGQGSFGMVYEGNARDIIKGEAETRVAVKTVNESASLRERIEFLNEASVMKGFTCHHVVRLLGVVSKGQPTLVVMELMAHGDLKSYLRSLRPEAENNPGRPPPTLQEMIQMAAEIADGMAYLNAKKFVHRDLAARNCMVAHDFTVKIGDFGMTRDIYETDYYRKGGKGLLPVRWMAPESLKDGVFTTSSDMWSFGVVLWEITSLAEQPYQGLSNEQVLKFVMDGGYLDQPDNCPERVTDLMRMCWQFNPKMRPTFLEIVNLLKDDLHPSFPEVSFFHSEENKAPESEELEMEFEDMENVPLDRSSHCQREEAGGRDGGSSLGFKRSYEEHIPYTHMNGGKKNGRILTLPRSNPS
Protocol: (§1) Baculovirus FAK catalytic domain and in vitro kinase assays: The FAK catalytic domain region (411-686) was generated by polymerase chain reaction using the primers 5′-[…]-3′ 5′-[…]-3′, cloned into pGEX4T as a fusion with GST, and moved into the pAcG2T baculovirus expression vector (Pharmingen, Baculogold). Virus clones were identified by plaque assays and amplified. For protein expression, SF9 cells were transduced at a multiplicity of infection of 2-5 pfu/cell and cultured at 27° C. for 48 h. Glutathione agarose affinity chromatography were used to purify GST-FAK (411-686) followed by size fractionation using hiload 16/60 Superdex chromatography (GE Healthcare). Protein was concentrated and stored frozen in 50 mM Tris pH 8.0, 150 mM NaCl, 1 mM Na orthovanadate, 0.5 mM EDTA, 0.5 mM EGTA, 0.1% β-mercaptoethanol, and 20% glycerol. Purity was estimated at >90% by SDS-PAGE. GST-FAK in vitro kinase activity was measured and compared to His-tagged FAK 411-686 (Millipore) using the K-LISA screening kit (Calbiochem) and poly(Glu:Tyr) (4:1) copolymer (P0275, Sigma) as a substrate immobilized on microtiter plates. […] Serial diluted compounds at ½-Log concentrations (starting at 1 μM) were tested in triplicate. Substrate phosphorylation was measured using horseradish peroxidase-conjugated anti-pTyr antibodies (PY20, Santa Cruz Biotechnology) with spetrophotometic color quantitation. IC50 values were determined using the Hill-Slope Model. Kinase selectivity profiling was performed by using the KinaseProfiler service (Millipore).

[6] = target: T2, CDK2 (cyclin-dependent kinase 2)/cyclin A (Homo sapiens, UniProt P24941); experiment: Millipore KinaseProfiler selectivity screen; type: biochemical
T2 construct: purchased Millipore (KinaseProfiler service)
Protocol: as §1

[7] = target: T3, ACK1 (activated Cdc42-associated tyrosine kinase 1) (Homo sapiens, UniProt Q07912); experiment: Millipore KinaseProfiler selectivity screen; type: biochemical
T3 construct: purchased Millipore (KinaseProfiler service)
Protocol: as §1

[8] = target: T4, Aurora-A (Homo sapiens, UniProt O14965); experiment: Millipore KinaseProfiler selectivity screen; type: biochemical; conditions: read-out: kinase inhibition
T4 construct: purchased Millipore (KinaseProfiler service)
T4 sequence (O14965 whole entry): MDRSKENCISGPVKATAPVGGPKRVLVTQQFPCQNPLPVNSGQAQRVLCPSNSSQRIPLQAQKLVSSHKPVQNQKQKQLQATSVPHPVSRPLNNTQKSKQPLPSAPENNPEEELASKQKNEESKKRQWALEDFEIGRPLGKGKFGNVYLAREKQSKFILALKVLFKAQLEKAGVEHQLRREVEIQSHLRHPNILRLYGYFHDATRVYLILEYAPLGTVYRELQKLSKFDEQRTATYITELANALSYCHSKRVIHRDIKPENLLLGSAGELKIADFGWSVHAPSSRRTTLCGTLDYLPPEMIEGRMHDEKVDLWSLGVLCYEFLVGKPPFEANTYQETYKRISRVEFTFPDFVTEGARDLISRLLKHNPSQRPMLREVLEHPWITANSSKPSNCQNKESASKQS
Protocol: as §1

[9] = target: T5, TrkA (tropomyosin-related kinase A) (Homo sapiens, UniProt P04629); experiment: Millipore KinaseProfiler selectivity screen; type: biochemical
T5 construct: purchased Millipore (KinaseProfiler service)
T5 sequence (P04629 33-796): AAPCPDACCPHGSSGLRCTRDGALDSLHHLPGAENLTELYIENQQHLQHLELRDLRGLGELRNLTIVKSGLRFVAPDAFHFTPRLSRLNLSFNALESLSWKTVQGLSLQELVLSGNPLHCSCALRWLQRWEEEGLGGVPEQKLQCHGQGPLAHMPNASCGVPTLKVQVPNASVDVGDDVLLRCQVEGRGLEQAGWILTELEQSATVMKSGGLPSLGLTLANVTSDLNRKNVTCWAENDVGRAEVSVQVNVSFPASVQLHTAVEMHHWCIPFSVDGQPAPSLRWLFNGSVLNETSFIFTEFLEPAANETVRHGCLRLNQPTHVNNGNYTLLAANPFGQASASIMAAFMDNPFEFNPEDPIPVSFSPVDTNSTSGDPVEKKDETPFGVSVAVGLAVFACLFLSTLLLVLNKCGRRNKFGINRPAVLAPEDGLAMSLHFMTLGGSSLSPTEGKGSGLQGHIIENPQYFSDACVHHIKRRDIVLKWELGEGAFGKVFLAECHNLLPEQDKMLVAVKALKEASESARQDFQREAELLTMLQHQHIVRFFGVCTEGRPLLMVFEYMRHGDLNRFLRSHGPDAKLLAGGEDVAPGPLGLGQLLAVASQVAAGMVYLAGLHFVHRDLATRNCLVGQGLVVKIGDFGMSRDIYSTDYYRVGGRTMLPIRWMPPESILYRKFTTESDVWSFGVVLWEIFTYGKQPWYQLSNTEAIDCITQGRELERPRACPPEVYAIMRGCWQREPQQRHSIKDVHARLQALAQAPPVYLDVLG
Protocol: as §1

[10] = target: T6, FAK (Homo sapiens, UniProt Q05397); experiment: Millipore KinaseProfiler selectivity screen; type: biochemical
T6 construct: purchased Millipore (KinaseProfiler service)
T6 sequence (Q05397 whole entry): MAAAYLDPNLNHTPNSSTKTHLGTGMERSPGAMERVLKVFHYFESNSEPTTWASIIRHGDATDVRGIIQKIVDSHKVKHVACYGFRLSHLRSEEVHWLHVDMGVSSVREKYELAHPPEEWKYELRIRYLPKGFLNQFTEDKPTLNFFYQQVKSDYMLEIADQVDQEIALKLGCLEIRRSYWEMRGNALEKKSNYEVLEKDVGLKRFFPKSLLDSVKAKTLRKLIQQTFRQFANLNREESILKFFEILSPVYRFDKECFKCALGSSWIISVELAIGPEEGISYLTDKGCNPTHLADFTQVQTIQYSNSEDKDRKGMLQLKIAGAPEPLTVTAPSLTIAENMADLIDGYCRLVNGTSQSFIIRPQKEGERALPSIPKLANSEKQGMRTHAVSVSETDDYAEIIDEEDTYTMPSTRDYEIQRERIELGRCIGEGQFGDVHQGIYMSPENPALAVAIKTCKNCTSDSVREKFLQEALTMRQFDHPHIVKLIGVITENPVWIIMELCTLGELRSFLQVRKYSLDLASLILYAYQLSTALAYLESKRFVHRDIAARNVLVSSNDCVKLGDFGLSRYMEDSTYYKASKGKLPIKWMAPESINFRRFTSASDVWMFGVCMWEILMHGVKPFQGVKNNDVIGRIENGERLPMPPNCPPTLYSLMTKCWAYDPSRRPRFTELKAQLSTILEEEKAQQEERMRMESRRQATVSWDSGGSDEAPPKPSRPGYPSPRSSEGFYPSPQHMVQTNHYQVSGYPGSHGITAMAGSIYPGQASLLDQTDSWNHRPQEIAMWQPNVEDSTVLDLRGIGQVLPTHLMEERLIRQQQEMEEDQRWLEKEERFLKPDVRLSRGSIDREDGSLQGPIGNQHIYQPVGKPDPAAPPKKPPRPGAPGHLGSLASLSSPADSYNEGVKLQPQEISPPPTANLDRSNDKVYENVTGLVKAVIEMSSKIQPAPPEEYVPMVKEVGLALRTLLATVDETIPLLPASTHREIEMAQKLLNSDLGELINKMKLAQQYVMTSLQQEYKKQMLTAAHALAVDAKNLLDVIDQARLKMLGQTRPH
Protocol: as §1

[11] = target: T7, Flt3 (FMS-like tyrosine kinase 3) (Homo sapiens, UniProt P36888); experiment: Millipore KinaseProfiler selectivity screen; type: biochemical
T7 construct: purchased Millipore (KinaseProfiler service)
T7 sequence (P36888 27-993): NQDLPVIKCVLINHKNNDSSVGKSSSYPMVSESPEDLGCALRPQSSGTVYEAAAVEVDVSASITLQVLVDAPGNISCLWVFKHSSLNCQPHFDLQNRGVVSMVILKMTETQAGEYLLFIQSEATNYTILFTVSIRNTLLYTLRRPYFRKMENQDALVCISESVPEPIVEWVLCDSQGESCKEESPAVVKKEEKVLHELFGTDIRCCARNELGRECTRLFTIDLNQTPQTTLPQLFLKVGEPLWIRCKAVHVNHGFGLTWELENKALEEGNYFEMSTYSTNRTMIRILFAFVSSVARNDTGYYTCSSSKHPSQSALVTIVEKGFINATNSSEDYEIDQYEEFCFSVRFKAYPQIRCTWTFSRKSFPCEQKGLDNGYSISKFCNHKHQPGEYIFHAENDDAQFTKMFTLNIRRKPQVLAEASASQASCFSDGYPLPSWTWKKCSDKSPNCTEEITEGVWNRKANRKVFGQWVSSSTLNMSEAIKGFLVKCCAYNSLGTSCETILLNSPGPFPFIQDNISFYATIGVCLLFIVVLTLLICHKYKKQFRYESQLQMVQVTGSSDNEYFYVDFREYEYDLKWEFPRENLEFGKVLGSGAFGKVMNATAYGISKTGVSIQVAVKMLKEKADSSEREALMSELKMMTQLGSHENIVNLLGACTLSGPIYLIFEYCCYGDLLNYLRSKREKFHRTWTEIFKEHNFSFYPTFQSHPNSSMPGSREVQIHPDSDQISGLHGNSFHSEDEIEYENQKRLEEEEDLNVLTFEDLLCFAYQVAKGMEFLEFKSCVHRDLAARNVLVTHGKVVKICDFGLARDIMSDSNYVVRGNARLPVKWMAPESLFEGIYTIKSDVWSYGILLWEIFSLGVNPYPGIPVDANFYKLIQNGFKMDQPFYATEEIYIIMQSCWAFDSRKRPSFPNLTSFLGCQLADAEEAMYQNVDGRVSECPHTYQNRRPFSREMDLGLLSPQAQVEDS
Protocol: as §1

[12] = target: T8, Lck (lymphocyte-specific protein tyrosine kinase) (Homo sapiens, UniProt P06239); experiment: Millipore KinaseProfiler selectivity screen; type: biochemical
T8 construct: purchased Millipore (KinaseProfiler service)
T8 sequence (P06239 whole entry): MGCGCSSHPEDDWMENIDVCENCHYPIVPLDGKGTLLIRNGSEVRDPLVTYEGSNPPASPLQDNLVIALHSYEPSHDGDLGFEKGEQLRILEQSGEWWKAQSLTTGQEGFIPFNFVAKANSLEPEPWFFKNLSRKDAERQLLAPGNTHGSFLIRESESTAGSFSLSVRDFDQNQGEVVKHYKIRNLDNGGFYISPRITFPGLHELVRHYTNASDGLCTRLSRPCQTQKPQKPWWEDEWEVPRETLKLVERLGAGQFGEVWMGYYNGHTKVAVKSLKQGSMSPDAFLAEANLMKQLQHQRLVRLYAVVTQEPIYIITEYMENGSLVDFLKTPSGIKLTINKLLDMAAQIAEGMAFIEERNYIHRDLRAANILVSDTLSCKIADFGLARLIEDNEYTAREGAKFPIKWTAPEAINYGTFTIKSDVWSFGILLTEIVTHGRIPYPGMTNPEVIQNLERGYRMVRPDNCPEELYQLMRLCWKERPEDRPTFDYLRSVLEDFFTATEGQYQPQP
Protocol: as §1

[13] = 0.5 mg/ml ad libitum, 30 treatment days

In the case of `CNC(=O)c1ccccc1Nc1cc(Nc2ccc(N3CCOCC3)cc2OC)ncc1C(F)(F)F` [PND-1186], the “annexin V positive staining, suspended cells” value ([1]; 0.1 to 0.4 μM) is reported as 50-60%, the “annexin V-positive cells, adherent conditions” value ([1]; up to 1.0 μM) is reported as “did not increase” and the “MDA-MB-231 apoptosis in suspension” value [2] is reported as “did not promote increased MDA-MB-231 apoptosis”. For the same compound, the ID8 cell number ([3]; 0.1, 0.4, and 1.0 μM, 72 h, suspended spheroids) was “significantly inhibited ID8 cell number”, the “viable ID8 cells” value ([3]; after 15 days) was “dramatic reduction in viable cells” and the “inhibition of FAK pY397 in ascites cells” value ([4]; 0.5 mg/ml ad libitum vs 5% sucrose) was > 2 fold. The ascites-associated cells [4, 13] was “lower number of ascites-associated cells”, the swollen abdomens [4, 13] was “did not exhibit swollen abdomens” and the “tumor nodules within the peritoneal space” value ([4]; 0.5 mg/ml ad libitum, dsRed imaging) was “significantly fewer tumor nodules”. The “adverse effects and body weight” value ([4]; 0.5 mg/ml in 5% sucrose ad libitum) was “No adverse effects and no body weight loss”, the “tumor burden, caspase 3 cleavage, tumor TUNEL staining” value ([4]; 0.5 mg/ml in drinking water of mice, tumor model not named at the place) was “decreased tumor burden, increased caspase 3 cleavage, and elevated tumor TUNEL staining” and the inhibition at 1 µM [5] was > 50%. The inhibition at 1 µM [6] was > 50%, the inhibition at 1 µM [7] was > 50% and the inhibition at 1 µM [8] was > 50%. For the same compound, the inhibition at 1 µM [9] was > 50%, the kinase inhibition specificity ([10]; 0.1 μM PND-1186) was “displayed specificity for FAK as well as Flt3” and the remaining kinase activity ([10]; 1 μM PND-1186) was “negligible activity”. The kinase inhibition specificity ([11]; 0.1 μM PND-1186) was “displayed specificity for FAK as well as Flt3”, the remaining kinase activity ([11]; 1 μM PND-1186) was “negligible activity” and the inhibition at 1 µM [12] was > 50%.
